US4405743A, “Pyrazolylpyrimidine derivatives” (Hokko Chemical Industry Co., Ltd., priority 1981, dated 1983)
Values after ≈ are worked out from the molar mass of the structure shown. Read-outs that look alike come from different tables or passages of the source.

Key:
[1] = system: cucumber plant
[2] = Annual Report of the Takeda's Research Institute, Vol. 24, pages 250-258 (1965); cited from earlier work
[3] = system: rice plant
[4] = system: Pyricularia oryzae; format: in vivo, Pyricularia oryzae on rice plant (variety: Asahi); settings: rice blast, curative treatment; sprayed liquid 200 ppm; 5 days after spraying
[5] = system: Pyricularia oryzae; format: in vivo, Pyricularia oryzae on rice plant (variety: Asahi); settings: rice blast, prevention; 200 ppm; 5 days after inoculation
[6] = system: rice blast; settings: Annual Report of the Takeda's Research Institute, Vol. 24, pages 250-258 (1965); cited from earlier work
[7] = system: rice plant; settings: blast prevention test, 200 ppm
[8] = system: Cochliobolus miyabeanus; assay: Effect of controlling rice brown spot, Experimental Example 3; format: in vivo, Cochliobolus miyabeanus on rice plant (variety: Asahi); settings: sprayed liquid 500 ppm, 5 days after inoculation
[9] = system: Sphaerotheca friliginea; assay: Effect of controlling cucumber powdery mildew, Experimental Example 4; format: in vivo; settings: sprayed liquid 200 ppm, 10 days after inoculation
Method: 10 ml of each of test liquids diluted to a predetermined concentration was sprayed over seedlings of a cucumber plant (variety: Sagami Hanpaku) grown up to the first leaf stage which has been soil cultured in an unglazed pot with a diameter of 9 cm in a green house. After allowing to stand overnight, the seedlings were sprayed for inoculation with a spore suspension of Sphaerotheca friliginea. Ten days after the inoculation, the rate of a lesion area (%) was checked and a control value was evaluated from the following equation. The degree of chemical injury against a cucumber plant was determined in the same manner as in Experimental Example.

[10] = system: rice plant; settings: blast curative test, 200 ppm
[11] = system: Botrytis cinerea; assay: Antimicrobial activity (mycelium growth inhibition, PDA medium); format: cell-based; settings: 24° C., read-out: ED50 value
Method: (§1) Experimental Example 5 (Test for Antimicrobial Activity Against Various Plant Phathogenic Fungi)
(§2) 1 ml of an acetone solution of each of test compounds and 20 ml of the PDA medium (50° C.) to prepare media containing the chemical in different concentrations, followed by charging into a petri dish with a diameter of 9 cm where it was solidified flat. On the central portion of the chemical-containing medium was inoculated a fungus-containing medium a piece of ager black-containing mycelia which was obtained by punching by means of a cork borer the tip portion of mycelia of each test fungus which had been cultured in advance in the PDA medium, followed by cultivating at 24° C. Two to six days after the cultivation, the diameter of the mycelia was measured and mycelium growth inhibiting rate was calculated from a comparison with that of a non-treated plot. The mycelium growth inhibiting rate was plotted on a logarithmic probability paper to determine an ED50 value.

[12] = system: Glomerella cingulata; assay: as above; format: cell-based; settings: Colletotrichum gloeosporioides, 24° C., read-out: ED50 value
Method: as §1, §2

[13] = system: Penicillium digitatum; assay: as above; format: cell-based; settings: 24° C., read-out: ED50 value
Method: as §1, §2

[14] = system: Sclerotinia fructigena; assay: as above; format: cell-based; settings: 24° C., read-out: ED50 value
Method: as §1, §2

[15] = system: Endothia parasitica; assay: as above; format: cell-based; settings: Cryphonectria parasitica, 24° C., read-out: ED50 value
Method: as §1, §2

[16] = system: Mycosphaerella melonis; assay: as above; format: cell-based; settings: 24° C., read-out: ED50 value
Method: as §1, §2

[17] = system: Curvularia sp.; assay: as above; format: cell-based; settings: 24° C., read-out: ED50 value
Method: as §1, §2

[18] = system: Phizoctonia solani; assay: as above; format: cell-based; settings: 24° C., read-out: ED50 value
Method: as §1, §2

[19] = system: Sclerotinia sclerotiorum; assay: as above; format: cell-based; settings: 24° C., read-out: ED50 value
Method: as §1, §2

[20] = system: Pellicularia sasakii; assay: as above; format: cell-based; settings: 24° C., read-out: ED50 value
Method: as §1, §2

[21] = system: Fusarium nivale; assay: as above; format: cell-based; settings: Microdochium nivale, 24° C., read-out: ED50 value
Method: as §1, §2

[22] = system: Phoma lingam; assay: as above; format: cell-based; settings: Plenodomus lingam, 24° C., read-out: ED50 value
Method: as §1, §2

[23] = system: Alternaria padwikii; assay: as above; format: cell-based; settings: 24° C., read-out: ED50 value
Method: as §1, §2

[24] = system: Diaporthe citri; assay: as above; format: cell-based; settings: 24° C., read-out: ED50 value
Method: as §1, §2

[25] = system: Helminthosporium gramineum; assay: as above; format: cell-based; settings: 24° C., read-out: ED50 value
Method: as §1, §2

[26] = system: Pyricularia oryzae; assay: microbe, parasite or virus in culture; format: cell-based; settings: read-out: ED50 value
[27] = system: Cochliobolus miyabeanus; assay: Antimicrobial activity (mycelium growth inhibition, PDA medium); format: cell-based; settings: Bipolaris oryzae, read-out: ED50 value

Compound	Degree of chemical injury ([1]; 200 ppm)	chemical injury [2]	Degree of chemical injury ([3]; 500 ppm)	Control Value [4] [%]	Control Value [5] [%]	activity of controlling rice blast [6]	Degree of chemical injury [7]	Control Value [8] [%]	Control Value [9] [%]	Degree of chemical injury [10]	further results
Cc1cc(O)nc(-n2nc(C)cc2C)n1 [Comparative Chemical 1, 2-(3,5-dimethyl-1-pyrazolyl)-4-methyl-6-hydroxypyrimidine, reference compound]	1	violent chemical injury	5	70	75	show an activity of controlling rice blast	5	75	53.2	5	–
Cc1cc(C)n(-c2nc(O)cc(-c3ccccc3)n2)n1 [Comparative Chemical 2, 2-(3,5-dimethyl-1-pyrazolyl)-4-phenyl-6-hydroxypyrimidine, reference compound]	1	violent chemical injury	5	71	76	show an activity of controlling rice blast	5	73	48.3	5	–
Cc1cc(SC#N)nc(-n2nc(C)cc2C)n1 [Comparative Chemical 3, 2-(3,5-dimethyl-1-pyrazolyl)-4-methyl-6-thiocyanopyrimidine]	–	violent chemical injury	–	–	–	–	–	–	–	–	–
CCCCc1c(C)nc(-n2nc(C)cc2C)nc1SCC [Compound 42]	–	–	–	100	100	–	0	100	92	0	Degree of chemical injury ([1]; in vivo): 0; IC50 [11]: 3.7 µg/mL (≈ 12.2 µM); IC50 [12]: 4 µg/mL (≈ 13.1 µM); IC50 [13]: 2 µg/mL (≈ 6.57 µM); IC50 [14]: 2.1 µg/mL (≈ 6.9 µM); IC50 [15]: 3.8 µg/mL (≈ 12.5 µM); IC50 [16]: 0.9 µg/mL (≈ 2.96 µM); IC50 [17]: 1.4 µg/mL (≈ 4.6 µM); IC50 [18]: 1.3 µg/mL (≈ 4.27 µM); IC50 [19]: 5.2 µg/mL (≈ 17.1 µM); IC50 [20]: 2 µg/mL (≈ 6.57 µM); IC50 [21]: 2 µg/mL (≈ 6.57 µM); IC50 [22]: 3.2 µg/mL (≈ 10.5 µM); IC50 [23]: 0.7 µg/mL (≈ 2.3 µM); IC50 [24]: 2.7 µg/mL (≈ 8.87 µM); IC50 [25]: 5.2 µg/mL (≈ 17.1 µM); Degree of chemical injury ([3]; in vivo): 0; IC50 [26]: 0.02 µg/mL (≈ 0.0657 µM); IC50 [27]: 1.8 µg/mL (≈ 5.91 µM)
